Laboratory results published in patent publication US20250320234A1, “LONP1 INHIBITOR COMPOUNDS, USES AND METHODS” (Pretzel Therapeutics, Inc., priority 2021, published 2025).

Target: LONP1 (NM_004793.4) (Homo sapiens (Human), UniProt P36776)
Assay: LONP1 FRET-based protease activity assay with fluorogenic peptide substrate
Format: biochemical
Settings: LONP1 15 nM, substrate 3 μM, 1 hour at 37° C.; average of a minimum of two repeats
Description: The inhibitory activity of the compounds of the present invention against LONP1, 20S proteasome and other proteases are determined by assays known to persons of ordinary skill in the art (see, e.g., Fishovitz, J. et al. “Active-Site-Directed Chemical Tools for Profiling Mitochondrial Lon Protease” ACS Chem. Biol. 6, 781-788 (2011)).
In this Example, LONP1 (NM_004793.4) activity was measured by a FRET-based assay for protease activity using a fluorogenic peptide DabcylYRGIT(2Abu)SORQK(5-FAM) (Cambridge Research Biochemicals) as substrate. LONP1 activity is followed by an increase in fluorescence signal due to the degradation of the peptide. Inhibition of LONP1 protease activity by an inhibitor compound of the disclosure elicits a decrease in the fluorescent signal.
The assay is performed in a 384-well plate (Greiner, cat. #781076) using the following reagents and conditions: substrate (3 μM) was incubated for 1 hour at 37° C. in the presence of LONP1 (15 nM as monomer), 25 mM Tris pH 8.0, 10 mM MgCl2, 0.03 mg/mL […], 0.5 mM DTT, 0.0003% Tween-20, 10 mM NaCl, 0.06 mM ATP and 0.5 mM EGTA in a 15 μL final volume. The LONP1-containing mix (10 μL) was incubated with the test compound for 15 min at 37° C. before adding the peptide-containing mix (5 μL). Solutions were dispensed using a small cassette-Multidrop Combi (Thermo Scientific). Fluorescence was measured using a PheraStar plate reader (BMG Labtech) FI-FRET EX 485 nm Em 520 nm.
Each value is based on an average of a minimum of two repeats.

LONP1 (NM_004793.4), sequence (P36776 68-959): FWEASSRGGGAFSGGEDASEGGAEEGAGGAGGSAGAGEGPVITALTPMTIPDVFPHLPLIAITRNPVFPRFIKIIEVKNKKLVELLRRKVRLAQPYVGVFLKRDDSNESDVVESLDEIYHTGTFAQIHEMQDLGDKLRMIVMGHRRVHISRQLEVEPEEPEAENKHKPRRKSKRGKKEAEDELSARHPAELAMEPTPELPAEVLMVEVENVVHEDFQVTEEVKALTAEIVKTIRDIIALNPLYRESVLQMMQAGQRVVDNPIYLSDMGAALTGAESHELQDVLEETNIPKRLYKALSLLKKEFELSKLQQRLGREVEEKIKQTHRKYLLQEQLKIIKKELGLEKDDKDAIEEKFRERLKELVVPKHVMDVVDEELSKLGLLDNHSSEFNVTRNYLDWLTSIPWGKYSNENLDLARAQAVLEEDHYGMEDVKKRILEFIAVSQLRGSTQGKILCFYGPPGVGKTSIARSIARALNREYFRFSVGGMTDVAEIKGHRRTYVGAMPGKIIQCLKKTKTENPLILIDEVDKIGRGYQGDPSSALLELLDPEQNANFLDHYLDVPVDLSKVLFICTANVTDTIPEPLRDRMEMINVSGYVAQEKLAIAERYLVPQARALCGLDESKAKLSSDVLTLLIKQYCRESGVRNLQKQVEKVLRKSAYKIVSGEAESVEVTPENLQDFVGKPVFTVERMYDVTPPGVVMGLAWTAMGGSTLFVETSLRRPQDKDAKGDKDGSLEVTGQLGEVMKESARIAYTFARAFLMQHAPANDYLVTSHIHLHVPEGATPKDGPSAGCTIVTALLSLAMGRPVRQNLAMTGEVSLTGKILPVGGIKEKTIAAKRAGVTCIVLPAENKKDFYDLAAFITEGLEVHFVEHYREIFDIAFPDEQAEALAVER

## COC[C@@H](NC(=O)c1cnccn1)C(=O)N[C@@H](COCc1ccccc1)B(O)O [Compound 2, ((R)-2-(benzyloxy)-1-((R)-3-methoxy-2-(pyrazine-2-carboxamido)propanamido)ethyl)boronic acid]
  IC50: 50 to 500 nM

## COC[C@@H](NC(=O)[C@H]1CCC(=O)N1)C(=O)N[C@@H](CCCc1ccccc1)B(O)O [Compound 8, ((R)-1-((R)-3-methoxy-2-((R)-5-oxopyrrolidine-2-carboxamido)propanamido)-4-phenylbutyl)boronic acid]
  IC50: 50 to 500 nM

## COC[C@@H](NC(=O)c1cnccn1)C(=O)N[C@@H](CCCc1cccc(Cl)c1)B(O)O [Compound 15, ((R)-4-(3-chlorophenyl)-1-((R)-3-methoxy-2-(pyrazine-2-carboxamido)propanamido)butyl)boronic acid]
  IC50: 50 to 500 nM

## COC[C@H](C(=O)N[C@@H](CCCc1ccccc1)B(O)O)N1C(=O)c2ccccc2C1=O [Compound 16, ((R)-1-((R)-2-(1,3-dioxoisoindolin-2-yl)-3-methoxypropanamido)-4-phenylbutyl)boronic acid]
  IC50: 50 to 500 nM

## COC[C@@H](NC(=O)c1cnccn1)C(=O)N[C@@H](CCCc1cccc(OC)c1)B(O)O [Compound 17, ((R)-1-((R)-3-methoxy-2-(pyrazine-2-carboxamido)propanamido)-4-(3-methoxyphenyl)butyl)boronic acid]
  IC50: 50 to 500 nM

## COC[C@@H](NC(=O)c1cnccn1)C(=O)N[C@@H](CC1CC1)B(O)O [Compound 18, ((R)-2-cyclopropyl-1-((R)-3-methoxy-2-(pyrazine-2-carboxamido)propanamido)ethyl)boronic acid]
  IC50: 50 to 500 nM

## COC[C@H](C(=O)N[C@@H](CCCc1ccccc1)B(O)O)N1C(=O)CCC1=O [Compound 19, ((R)-1-((R)-2-(2,5-dioxopyrrolidin-1-yl)-3-methoxypropanamido)-4-phenylbutyl)boronic acid]
  IC50: 500 to 5000 nM

## COC[C@@H](NC(=O)c1cnccn1)C(=O)N[C@H](CCOc1ccc(Cl)c(F)c1)B(O)O [Compound 26, ((S)-3-(4-chloro-3-fluorophenoxy)-1-((R)-3-methoxy-2-(pyrazine-2-carboxamido)propanamido)propyl)boronic acid]
  IC50: 500 to 5000 nM

## COC[C@@H](NC(=O)c1cnccn1)C(=O)N[C@@H](CCOc1ccc(Cl)cc1C)B(O)O [Compound 27, ((R)-3-(4-chloro-2-methylphenoxy)-1-((R)-3-methoxy-2-(pyrazine-2-carboxamido)propanamido)propyl)boronic acid]
  IC50: 50 to 500 nM

## COC[C@@H](NC(=O)c1cnccn1)C(=O)N[C@H](CCOc1ccc(Cl)cc1F)B(O)O [Compound 29, ((S)-3-(4-chloro-2-fluorophenoxy)-1-((R)-3-methoxy-2-(pyrazine-2-carboxamido)propanamido)propyl)boronic acid]
  IC50: 500 to 5000 nM

## CO[C@@H](C)[C@@H](NC(=O)c1cnccn1)C(=O)N[C@@H](CCOc1ccccc1)B(O)O [Compound 30, ((R)-1-((2R,3S)-3-methoxy-2-(pyrazine-2-carboxamido)butanamido)-3-phenoxypropyl)boronic acid]
  IC50: 50 to 500 nM

## COC[C@@H](NC(=O)c1cnccn1)C(=O)N[C@@H](CC(C)C)B(O)O [Compound 38, ((R)-1-((R)-3-methoxy-2-(pyrazine-2-carboxamido)propanamido)-3-methylbutyl)boronic acid]
  IC50: 50 to 500 nM

## O=C(N[C@H](CO)C(=O)N[C@@H](CCCc1ccc(O)cc1)B(O)O)c1cnccn1 [Compound 39, ((R)-1-((R)-3-hydroxy-2-(pyrazine-2-carboxamido)propanamido)-4-(4-hydroxyphenyl)butyl)boronic acid]
  IC50: 500 to 5000 nM

## COC[C@@H](NC(=O)c1cnccn1)C(=O)N[C@@H](CCCc1ccc(O)cc1)B(O)O [Compound 40, ((R)-4-(4-hydroxyphenyl)-1-((R)-3-methoxy-2-(pyrazine-2-carboxamido)propanamido)butyl)boronic acid]
  IC50: 500 to 5000 nM

## COC[C@@H](NC(=O)[C@H]1CCCCO1)C(=O)N[C@@H](CCCc1ccccc1)B(O)O [Compound 41, ((R)-1-((R)-3-methoxy-2-((R)-tetrahydro-2H-pyran-2-carboxamido)propanamido)-4-phenylbutyl)boronic acid]
  IC50: 50 to 500 nM

## COC[C@@H](NC(=O)c1cnccn1)C(=O)N[C@@H](CCC(=O)c1ccccc1)B(O)O [Compound 53, ((R)-1-((R)-3-methoxy-2-(pyrazine-2-carboxamido)propanamido)-4-oxo-4-phenylbutyl)boronic acid]
  IC50: 500 to 5000 nM
